Experimental data reported in publication PMC11172375, “Preclinical Evaluation of Biodistribution and Toxicity of [^211At]PSMA-5 in Mice and Primates for the Targeted Alpha Therapy against Prostate Cancer” (International Journal of Molecular Sciences, 2024).

Experiments:
[1] = Biodistribution in ICR mice; type: in vivo
Protocol: (§1) [^211At]PSMA-5 was administered intravenously to 25 mice, and its biodistribution was evaluated. For the toxicity study, three doses of [^211At]PSMA-5 (5, 12, and 35 MBq/kg, single dose) or saline were intravenously administered to 10 mice/group for the main evaluation point on day 1, and 5-mice/group for recovery evaluation on day 14, adhering to the ICH M3 (R2) guidelines. The dosage was determined based on our previous study using [^211At]NaAt. The monkeys were monitored for 24 h post-administration of [^211At]PSMA-5 (9 MBq/kg).
(§2) Monkeys were anesthetized with intramuscular administration of ketamine (10 mg/kg) and xylazine (0.5 mg/kg) with isoflurane inhalation anesthesia. Planar and Single Photon Emission Computed Tomography (SPECT) imaging was performed in monkeys using a γ-camera system (E-cam, Siemens, Erlangen, Germany) immediately after administration to 1 h and at 3 and 24 h post-administration of [^211At]PSMA-5 (9 MBq/kg), targeting the X-rays emitted from the daughter nuclide ^211Po (energy window: 79 keV ± 20%). Subsequent image analysis was performed by setting the regions of interest using Osirix MD software (Version 13, Pixmeo SARL, Bernex, Switzerland) and PMOD software (Version 3.903, PMOD Technologies, Fällanden, Switzerland). Blood samples were obtained pre-administration and at 1, 3, and 24 h post-administration, followed by euthanasia via bloodletting at 24 h.
Urine and feces samples were collected at each time point. Following euthanasia, the brain, thyroid gland, salivary gland, lungs, heart, liver, kidney, spleen, pancreas, stomach, small intestine, large intestine, bladder, testes, and prostate tissues were collected. Organ weights and radiation doses were measured using a γ-counter (model: 2480Wizard2, PerkinElmer) and γ-camera system (E-cam) by appropriate cross-calibration.

[2] = TLC metabolite analysis of blood samples, monkeys; type: in vivo; settings: cynomolgus monkeys, plasma
Protocol: as §2
(§3) The blood samples were centrifuged at 3000 rpm for 5 min, and the resulting plasma was mixed with twice the volume of ethanol, then agitated vigorously. The supernatants were analyzed by thin-layer chromatography (TLC).

[3] = Necropsy and histological evaluation in mice; type: in vivo, ICR mice
Protocol: as §1
The brain, salivary gland, thyroid, heart, lungs, liver, kidney, adrenal gland, pancreas, spleen, thymus, stomach, small intestine, large intestine, bladder, prostate, and testes were collected on days 1 or 14 in mice and at 24 h in monkeys. Additionally, the pituitary gland, tongue, trachea, esophagus, mesenteric lymph nodes, epididymis, seminal vesicles, skin, mammary glands, spinal cord, bone, bone marrow (femur), eyeball, and optic nerve were collected from the mice. After fixation, paraffin sections were prepared and stained with hematoxylin and eosin (HE). All the specimens were evaluated by an expert in toxic pathology using an integrated fluorescence microscope (BZ-X810; Keyence Corporation. Osaka, Japan). In mice, the brain, salivary glands, heart, lungs, liver, gallbladder, spleen, kidneys, and testes were weighed according to ICH S4 guideline.

[4] = design: method as in PMID 35553387; settings: LNCaP xenograft mice, 1MBq (53MBq/kg), 3 and 6 weeks after administration; cited from earlier work
[5] = Blood chemistry analysis in monkeys; type: in vivo, cynomolgus monkeys; settings: for ALB / ALP / ALT / AMY / AST / BUN / CK / CRE / K / LDH / Na / TBIL / TCHO / TG / TP / γ-GTP / GLU: monkeys, 9 MBq/kg i.v.
Protocol: as §1, §2
A blood cell counter was used for the measurements (CB-1010; ARKRAY, Inc., Kyoto, Japan). Red blood cell count (RBC), hemoglobin concentration (Hb), hematocrit (Ht), white blood cell count (WBC), platelet count (platelet), lymphocytes (%Lymph), monocytes (%Mon), and granulocytes (%Gra) were calculated. Plasma was analyzed using a dry clinical chemistry analyzer (Spotchem D-00 QR D-02; ARKRAY, Inc., Kyoto, Japan). The levels of aspartate aminotransferase (AST), alanine aminotransferase (ALT), gamma-glutamyl transpeptidase (γ-GTP), lactate dehydrogenase (LDH), alkaline phosphatase (ALP), creatine kinase (CK), amylase (AMY), total bilirubin (TBIL), creatinine (CRE), urea nitrogen (BUN), glucose (GLU), total protein (TP), albumin (ALB), total cholesterol (TCHO), triglyceride (TG), and electrolytes (Na, K, and Cl) were measured.

[6] = TLC metabolite analysis of blood samples, mice; type: in vivo; settings: plasma
Protocol: as §2, §3

[7] = mice, 12 MBq/kg, regarded as spontaneous lesion
[8] = 24 hrs, might be affected by hemolysis

For `O=C(O)CC[C@H](NC(=O)N[C@@H](CCCCNC(=O)[C@@H](Cc1ccc2ccccc2c1)NC(=O)c1ccc(CNC(=O)[C@@H](CCC(=O)O)NC(=O)[C@@H](CCC(=O)O)NC(=O)Cc2ccc([211At])cc2)cc1)C(=O)O)C(=O)O` [[^211At]PSMA-5], which “time of peak kidney uptake post-administration” value ([1]; ICR mice, 5 MBq/kg i.v.) is on record?
Its value is 6 h.

What about the “time of peak thyroid gland uptake” value ([1]; ICR mice, 5 MBq/kg i.v.) of the same compound?
The value was 3 h.

And the cumulative fecal excretion ([1]; ICR mice, 5 MBq/kg i.v., 6 h)?
Its cumulative fecal excretion is 3.03 ± 1.90 %ID.

What about the cumulative urinary excretion ([1]; ICR mice, 5 MBq/kg i.v., 6 h) of the same compound?
The cumulative urinary excretion was 4.85 ± 1.76 %ID.

And the cumulative fecal excretion ([1]; ICR mice, 5 MBq/kg i.v., 24 h)?
Its cumulative fecal excretion is 24.07 ± 8.54 %ID.

And the cumulative urinary excretion ([1]; ICR mice, 5 MBq/kg i.v., 24 h)?
Its cumulative urinary excretion is 18.89 ± 4.57 %ID.

And the “uptake in the thyroid” value ([1]; mice, 3 h post-administration)?
The value was 51 %ID/g.

And the “metabolites in blood samples (TLC)” value [2]?
The value was “no metabolites were detected”.

What about the “gross findings during necropsy” value ([3]; expert evaluation) of the same compound?
The value was “no gross abnormalities beyond spontaneous lesions”.

What about the “histological changes in the thyroid, testes, and kidneys compared to the control group” value ([3]; mice, 5, 12 and 35 MBq/kg) of the same compound?
Its value is “no significant changes”.

And the “single-cell necrosis/apoptosis of crypt epithelial cells in pyloric glands of the stomach, duodenum, jejunum” value ([3]; mice, 5-35 MBq/kg, day 1)?
The value was “dose-dependent increase”.

What about the “tingible body macrophages in white pulp of the spleen and lymphoid follicles of mesenteric lymph nodes” value ([3]; mice, 5-35 MBq/kg, day 1) of the same compound?
Its value is “dose-dependent increase”.

And the “incidence of increased single-cell necrosis/apoptosis in striatal epithelial and serous cells of the salivary gland” value ([3]; mice, 12 MBq/kg, day 1)?
Its value is 1/10.

And the “incidence of atrophy of the seminal vesicles” value [3, 7]?
The value was 1/10.

And the “incidence of intraperitoneal mass” value [3, 7]?
Its value is 1/10.

And the “incidence of cortical lymphopenia in the thymus” value ([3]; mice, 35 MBq/kg, day 1)?
The value was 2/10.

And the “incidence of decrease in bone marrow cells” value ([3]; mice, 35 MBq/kg, day 1)?
Its value is 9/10.

And the “incidence of increased single-cell necrosis/apoptosis in striatal epithelial and serous cells of the salivary gland” value ([3]; mice, 35 MBq/kg, day 1)?
Its value is 7/10.

What about the “incidence of mild localized hepatocellular necrosis in the liver” value ([3]; mice, 35 MBq/kg, considered a spontaneously occurring lesion) of the same compound?
Its value is 1/10.

And the “degenerative changes in salivary glands, stomach, duodenum, jejunum, spleen, mesenteric lymph nodes, bone marrow, thymus” value ([3]; mice, day 14 post-administration)?
The value was “not observed”.

What about the kidney histology [4] of the same compound?
The kidney histology was “regenerated tubules were observed”.

What about the LDH levels ([5]; cynomolgus monkeys, 9 MBq/kg) of the same compound?
Its LDH levels is “elevated in both monkeys”.

What about the “renal function or electrolyte levels” value ([5]; cynomolgus monkeys, 9 MBq/kg) of the same compound?
The value was “No significant changes”.

What about the “monkeys with a mild increase in amylase” value ([5]; cynomolgus monkeys, 9 MBq/kg, 24 h post-administration) of the same compound?
The value was 1/2.

And the ALB ([5]; 1 hr)?
The ALB was 2.5 ± 0.4 g/dL.

And the ALP ([5]; 1 hr)?
The ALP was 835 ± 173.6 IU/L.

And the ALT ([5]; 1 hr)?
Its ALT is 11.3 ± 1.8 IU/L.

What about the AMY ([5]; 1 hr) of the same compound?
The AMY was 291 ± 62.2 IU/L.

What about the AST ([5]; 1 hr) of the same compound?
The AST was 13.3 ± 4.6 IU/L.

What about the BUN ([5]; 1 hr) of the same compound?
Its BUN is 24.8 ± 2.5 mg/dL.

What about the CK ([5]; 1 hr) of the same compound?
Its CK is 496 ± 321.4 IU/L.

And the CRE ([5]; 1 hr)?
The CRE was 0.5 ± 0.2 mg/dL.

What about the K ([5]; 1 hr) of the same compound?
Its K is 4.3 ± 0.2 mEq/L.

And the LDH ([5]; 1 hr)?
The LDH was 231 ± 27.9 IU/L.

And the Na ([5]; 1 hr)?
Its Na is 140 ± 2.8 mEq/L.

What about the TBIL ([5]; 1 hr) of the same compound?
The TBIL was 0.3 ± 0.1 mg/dL.

And the TCHO ([5]; 1 hr)?
Its TCHO is 84 ± 24 mg/dL.

And the TG ([5]; 1 hr)?
The TG was 25.5 ± 0.7 mg/dL.

And the TP ([5]; 1 hr)?
The TP was 3.6 ± 0.4 g/dL.

And the γ-GTP ([5]; 1 hr)?
Its γ-GTP is 61.8 ± 8.1 IU/L.

And the GLU ([5]; 1 hr, suggests contamination from the infusion fluid)?
Its GLU is 309 ± 177 mg/dL.

And the ALB ([5]; 3 hrs)?
Its ALB is 2.5 ± 0.1 g/dL.

What about the ALP ([5]; 3 hrs) of the same compound?
The ALP was 890 ± 47.4 IU/L.

And the ALT ([5]; 3 hrs)?
The ALT was 12 ± 2.8 IU/L.

What about the AMY ([5]; 3 hrs) of the same compound?
Its AMY is 342 ± 38.2 IU/L.

And the BUN ([5]; 3 hrs)?
Its BUN is 27 ± 1.4 mg/dL.

What about the CK ([5]; 3 hrs) of the same compound?
Its CK is 522 ± 101.8 IU/L.

And the CRE ([5]; 3 hrs)?
Its CRE is 0.75 ± 0.21 mg/dL.

What about the GLU ([5]; 3 hrs) of the same compound?
The GLU was 62 ± 56.6 mg/dL.

And the K ([5]; 3 hrs)?
Its K is 4.9 ± 0.4 mEq/L.

What about the LDH ([5]; 3 hrs) of the same compound?
Its LDH is 255 ± 4.9 IU/L.

What about the Na ([5]; 3 hrs) of the same compound?
The Na was 143 ± 0 mEq/L.

What about the TBIL ([5]; 3 hrs) of the same compound?
The TBIL was 0.3 ± 0.0 mg/dL.

And the TCHO ([5]; 3 hrs)?
Its TCHO is 91 ± 17 mg/dL.

What about the TG ([5]; 3 hrs) of the same compound?
Its TG is 28 ± 4.2 mg/dL.

And the TP ([5]; 3 hrs)?
Its TP is 3.7 ± 0.1 g/dL.

What about the γ-GTP ([5]; 3 hrs) of the same compound?
Its γ-GTP is 66.5 ± 19.1 IU/L.

And the ALB ([5]; 24 hrs)?
The ALB was 2.7 ± 0 g/dL.

What about the ALP ([5]; 24 hrs) of the same compound?
Its ALP is 768 ± 34.4 IU/L.

And the ALT ([5]; 24 hrs)?
The ALT was 24.8 ± 21 IU/L.

And the AMY ([5]; 24 hrs)?
Its AMY is 565 ± 197 IU/L.

What about the BUN ([5]; 24 hrs) of the same compound?
The BUN was 35.7 ± 2.4 mg/dL.

And the CK ([5]; 24 hrs)?
Its CK is 713 ± 293.9 IU/L.

And the CRE ([5]; 24 hrs)?
Its CRE is 0.7 ± 0.0 mg/dL.

What about the GLU ([5]; 24 hrs) of the same compound?
Its GLU is 77.7 ± 1.4 mg/dL.

What about the K ([5]; 24 hrs) of the same compound?
Its K is 4 ± 0.2 mEq/L.

And the Na ([5]; 24 hrs)?
Its Na is 146 ± 3.1 mEq/L.

What about the TBIL ([5]; 24 hrs) of the same compound?
The TBIL was 0.7 ± 0.3 mg/dL.

And the TCHO ([5]; 24 hrs)?
The TCHO was 90.7 ± 0.5 mg/dL.

And the TG ([5]; 24 hrs)?
Its TG is 28.7 ± 4.7 mg/dL.

What about the TP ([5]; 24 hrs) of the same compound?
Its TP is 4.2 ± 0.4 g/dL.

What about the γ-GTP ([5]; 24 hrs) of the same compound?
The γ-GTP was 65 ± 17.9 IU/L.

What about the AST [5, 8] of the same compound?
The AST was 38.7 ± 19.3 IU/L.

And the LDH [5, 8]?
The LDH was 471 ± 30.2 IU/L.

And the “metabolites in blood samples (TLC)” value [6]?
Its value is “no metabolites were detected”.
